From patent US7482453B2, “Process for the manufacture of (+)-(S)-clopidogrel bisulfate form-1” (Wockhardt Ltd., priority 2003, dated 2009)
Counter-ions that a name gives are not always drawn.

Assays:
platelet aggregation = conditions: cited from earlier work; for Platelet aggregation inhibiting activity of the enantiomers: as described in EP 281459
[1] = versus Aspirin; cited from earlier work
[2] = Form-I obtained by the ethyl acetate process

COC(=O)C(c1ccccc1Cl)N1CCc2sccc2C1 (single isomer, unassigned) [levo-rotatory isomer]
Platelet aggregation inhibiting activity of the enantiomers (platelet aggregation): less active

COC(=O)[C@H](c1ccccc1Cl)N1CCc2sccc2C1 [Clopidogrel hydrogen sulfate, bisulfate of methyl-(+)-(S)-α-(2-chlorophenyl)-4,5,6,7-tetrahydrothieno[3,2,-c]pyridine-5-acetate]
Platelet aggregation inhibiting activity of the enantiomers (platelet aggregation): excellent platelet aggregation inhibiting activity

COC(=O)[C@H](c1ccccc1Cl)N1CCc2sccc2C1 [Clopidogrel]
Gastrointestinal bleeding compared with Aspirin [1]: much less gastrointestinal bleeding than Asprin
Effectiveness in blocking platelet aggregation compared with Aspirin (platelet aggregation; recent studies, versus Aspirin): more effective in blocking platelet aggregation than Asprin

COC(=O)[C@H](c1ccccc1Cl)N1CCc2sccc2C1 [Form-I, Methyl-(+)-(S)-α-(2-Chlorophenyl)-6,7-dihydrothieno[3,2-c]pyridine-5(4H)-acetate bisulfate Form-I]
Stability of the crystal form / conversion to other forms [2]: stable and does not convert to any other forms
